Results on three compounds are retold here after patent publication US12171777B2, “Methods of making a cyclic dinucleotide” (TAKEDA PHARMACEUTICAL COMPANY LIMITED, priority 2016, dated 2024).

Where a name gives a salt, the structure may show the parent alone.

Data set [1] relates to B16F10 mouse tumor cells. As to the kind of experiment: Anti-tumor effect in B16F10 syngeneic mice model. It counts as in vivo. The note with it: C57BL/6 mice; intravenous q3dx3; Ex3a 30 mg/kg, Ex14 1.0 mg/kg. How it is done:
(§1) Ex14 and Ex3a were tested in syngeneic tumor models in mice. […] See FIG. 8 and FIG. 9 for the anti-tumor effect colon carcinoma CT-26 syngeneic mice model, and FIG. 10 and FIG. 11 for the anti-tumor effect in the […] B16F10 syngeneic mice model.
(§2) 8×10^4 B16F10 and 2×10^5 CT-26 mouse tumor cells were subcutaneously implanted in the flank of female C57BL/6 (B16F10) and Balb/C (CT-26) mice (n=7 per group). Vehicle (1×PBS), compound Ex3a (30 mg/kg) or Ex14 (1.0 mg/kg) were intravenously administered (final volume of 100 μL) to tumor-bearing mice once the tumor volume has reached 100 mm^3 (Day 0). Vehicle, Ex3a or Ex14 were given every 3 days for a total of 3 doses (q3dx3). Tumor and body weight measurements were taken three times per week using vernier calipers and mettler scale, respectively. Tumor volumes were determined by multiplying the square of the width (‘W’), measured along the short axis of the tumor, by one-half the length (‘L’) measured along the […]

Data set [2] concerns CT-26 mouse tumor cells. The data set can be described thus: Anti-tumor effect in CT-26 syngeneic mice model. It counts as in vivo. The note with it: Balb/C mice; intravenous q3dx3; Ex3a 30 mg/kg, Ex14 1.0 mg/kg. How it is done: as §1, §2
A short description of data set [3]: Human plasma stability assay. The note with it: elimination rate constant k; heparinized human plasma, 37° C., 0-24 hours. It counts as in vitro ADME. How it is done: The compound was incubated in heparinized human plasma at 37° C. for 0, 1, 2, 4, 8 and 24 hours, and the change in compound concentration was measured by LC/MS/MS method. The elimination rate constant (=k(/h)) was calculated based on the fitted curve assuming the exponential decrease of concentration as follows; concentration at time x=initial concentration*exp(−k*x).

In data set [4] the target is WT STING (human wild-type TMEM173 (H232R)) (Homo sapiens (Human), UniProt Q86WV6, H232R). As to the kind of experiment: Reporter Gene Assay (2): ISRE NanoLuc reporter in STING-transfected 293T cells, with digitonin. It counts as cell-based. The note with it: HEK-293T, 2′,3′-cGAMP (30 μM) = 100%, solvent = 0%, read-out: activity level against WT STING of test compound (30 μM). For orientation: In a reporter assay the amount or activity of a reporter protein is the signal.
Sequence of WT STING (human wild-type TMEM173 (H232R)) (Q86WV6 whole entry H232R): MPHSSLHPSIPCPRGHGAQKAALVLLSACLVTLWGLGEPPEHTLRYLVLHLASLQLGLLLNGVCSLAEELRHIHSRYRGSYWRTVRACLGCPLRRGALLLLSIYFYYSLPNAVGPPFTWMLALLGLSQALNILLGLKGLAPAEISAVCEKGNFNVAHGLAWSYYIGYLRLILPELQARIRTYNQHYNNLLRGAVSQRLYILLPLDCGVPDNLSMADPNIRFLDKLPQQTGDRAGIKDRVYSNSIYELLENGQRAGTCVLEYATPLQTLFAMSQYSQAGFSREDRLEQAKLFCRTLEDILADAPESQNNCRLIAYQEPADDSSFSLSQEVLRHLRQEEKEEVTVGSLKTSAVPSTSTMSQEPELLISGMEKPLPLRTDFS
Description: The culture solution was removed, and the test compound diluted with assay buffer (50 mM HEPES pH 7.0, 100 mM KCl, 3 mM MgCl2, 85 mM Sucrose, 0.1 mM DTT, 0.2% BSA, 1 mM ATP, 0.1 mM GTP, 10 μg/ml Digitonin) was added thereto by 15 μL/well. The cells were cultured at 37° C. under 5% CO2 condition for 30 min, and the assay buffer was removed. Dulbecco's Modified Eagle's Medium (DMEM) (Wako Pure Chemical Industries, Ltd.) containing 10% fetal bovine serum was added thereto by 20 μL/well, and the cells were cultured at 37° C. under 5°%° CO2 condition for 4 hr. Luminescence signals derived from firefly luciferase and NanoLuc Luciferase were each measured using EnVision (PerkinElmer, Waltham, MA, US) according to Nano-Glo Dual-Luciferase Reporter Assay System (Promega, Fitchburg, WI, US) protocol. The ratio of the count of NanoLuc Luciferase divided by the count of firefly luciferase was used for calculation. The activity level of each test compound was calculated when the ratio in the cells treated with 2′,3′-cGAMP (30 μM) was considered as 100%, and the ratio in the cells treated with the solvent was considered as 0%.

`Nc1ncnc2c1ncn2[C@@H]1O[C@@H]2COP(=O)(O)O[C@@H]3[C@H](O)[C@@H](COP(=O)(S)O[C@H]2[C@H]1F)O[C@H]3n1cc(F)c2c(=O)[nH]cnc21` (stereo partly drawn) [Ex3a, disodium (5R,7R,8R,12aR,14R,15R,15aR,16R)-14-(6-amino-9H-purin-9-yl)-15-fluoro-7-(5-fluoro-4-oxo-3,4-dihydro-7H-pyrrolo[2,3-d]pyrimidin-7-yl)-16-hydroxy-2-sulfidooctahydro-12H-5,8-methanofuro[3,2-1][1,3,6,9,11,2,10]pentaoxadiphosphacyclotetradecin-10-olate 2,10-dioxide]: the “anti-tumor effect, B16F10 syngeneic mice model” value in data set [1] is “anti-tumor effects were observed”. For the same compound, the “anti-tumor effect, CT-26 syngeneic mice model” value in data set [2] is listed as “anti-tumor effects were observed”. In addition, the “Human plasma stability” value in data set [3] came to 0.58 h⁻¹.

On to `Nc1ncnc2c1ncn2[C@@H]1O[C@@H]2COP(=O)(S)O[C@@H]3[C@H](O)[C@@H](COP(=O)(S)O[C@H]2[C@H]1F)O[C@H]3n1cc(F)c2c(=O)[nH]cnc21` (stereo partly drawn) [Example 14, 7-((2R,5R,7R,8R,10R,12aR,14R,15R,15aR,16R)-14-(6-amino-9H-purin-9-yl)-15-fluoro-16-hydroxy-2,10-dioxido-2,10-disulfanyloctahydro-12H-5,8-methanofuro[3,2-1][1,3,6,9,11,2,10]pentaoxadiphosphacyclotetradecin-7-yl)-5-fluoro-3,7-dihydro-4H-pyrrolo[2,3-d]pyrimidin-4-one di sodium salt], for which the “anti-tumor effect, B16F10 syngeneic mice model” value in data set [1] was “anti-tumor effects were observed”. The “anti-tumor effect, CT-26 syngeneic mice model” value in data set [2] was “anti-tumor effects were observed”. Moreover, in data set [3], the “Human plasma stability” value is <0.01 h⁻¹.

`Nc1ncnc2c1ncn2[C@@H]1O[C@@H]2COP(=O)(S)O[C@@H]3[C@H](O)[C@@H](COP(=O)(S)O[C@H]2[C@H]1O)O[C@H]3n1cc(F)c2c(=O)[nH]cnc21` (stereo partly drawn) [Example 5, 7-((5R,7R,8R,12aR,14R,15R,15aS,16R)-14-(6-amino-9H-purin-9-yl)-15,16-dihydroxy-2,10-dioxido-2,10-disulfanyloctahydro-12H-5,8-methanofuro[3,2-1][1,3,6,9,11,2,10]pentaoxadiphosphacyclotetradecin-7-yl)-5-fluoro-3,7-dihydro-4H-pyrrolo[2,3-d]pyrimidin-4-one di-triethylamine salt (Optical Isomer)]: the activation at 30 µM in data set [4] is 107%. Further, in data set [3], the “Human plasma stability” value is <0.01 h⁻¹.
